# Assay results taken from patent publication EP0145303A1, “Glycerol derivatives” (ONO PHARMACEUTICAL CO., LTD., priority 1983, dated 1985).
# Experiments:
# [1] = biological target: PAF (10 nM)-induced aggregation (Cavia porcellus, UniProt P21556); test: Inhibitory effect on PAF-induced platelet aggregation (platelet rich plasma, absorbancy method, aggregometer of Born); type: cell-based; details: male guinea pig platelet rich plasma
# Description: Whole blood of male guinea pig was collected with a 3.8% aqueous solution of trisodium citrate in a proportion of 9:1 (v/v) and the mixture was centrifuged (120 x g) for 10 minutes at room temperature to obtain platelet rich plasma. Using obtained plasma, PAF (10 nM)-induced aggregation was determined by the absorbancy method using an aggrego-meter of Born [cf. J. Physiol., 162, 67 (1962)].
# The evaluation is conducted using the concentration of compounds of the present invention required to produce a 50% inhibition of each effect, i.e. IC50.
# mice = test: Acute toxicity by intravenous administration; type: in vivo; details: five mice, intravenous to tail vein, dose of 100 mg/Kg
# Description: On the other hand, it was confirmed that the acute toxicity of all extent of the compounds of the present invention was more than 100 mg/Kg by intravenous administration. Therefore, glycerol derivatives of the present invention may be considered to be sufficiently safe and suitable for medical use. For example, the mortality (daed/used) in glycerol derivatives of the present invention, i.e. compounds prepared in Example 4 was 0/5, when glycerol derivatives was intravenous administered to tail vein in five mice at the dose of 100 mg/Kg.
# PAF (10 nM)-induced aggregation, sequence (P21556 whole entry): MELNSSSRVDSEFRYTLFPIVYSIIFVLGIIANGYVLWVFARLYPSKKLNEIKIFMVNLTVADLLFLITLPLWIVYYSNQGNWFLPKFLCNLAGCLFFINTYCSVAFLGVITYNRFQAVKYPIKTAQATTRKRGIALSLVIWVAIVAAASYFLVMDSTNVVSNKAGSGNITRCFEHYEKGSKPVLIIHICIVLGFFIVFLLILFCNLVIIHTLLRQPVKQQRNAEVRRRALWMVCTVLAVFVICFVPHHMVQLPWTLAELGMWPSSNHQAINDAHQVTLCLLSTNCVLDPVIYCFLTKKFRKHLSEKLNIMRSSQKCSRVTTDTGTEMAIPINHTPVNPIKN
Compound,IC50 [1] [µM],mortality (daed/used) (mice)
CCCCCCCCCCCCCCCCOCC(COCCCc1ccc([N+](C)(C)C)cc1)NC(=O)OCC(C)C (racemic) [Example 9],3.7,–
CCCCCCCCCCCCCCCCOCC(COc1ccc(CCCC[N+](C)(C)C)cc1)NC(=O)OCC(C)C (centres unmarked) [Example 4],–,0/5

# The next lines start with results.
IC50 [1] [µM],Compound,mortality (daed/used) (mice)
4.7,CCCCCCCCCCCCCCCCOCC(COc1ccc(CCCC[N+](C)(C)C)cc1)NC(=O)NC (centres unmarked) [5(a)],–
5,CCCCCCCCCCCCCCCCOCC(COc1ccc(CCCC[N+](C)(C)C)cc1)OC(C)=O (centres unmarked) [Example 2],–
6.7,CCCCCCCCCCCCCCCCOCC(COc1ccc(CCCC[N+](C)(C)C)cc1)NC(C)=O (centres unmarked) [Example 5],–
